According to article PMC11267282, “Ultrashort‐Peptide‐Responsive Gene Switches for Regulation of Therapeutic Protein Expression in Mammalian Cells” (Advanced Science, 2024):
Entries after “also recorded” stand apart in the source; their conditions may differ. Where a SMILES comes first, the peptide text is derived from it.

Key:
[1] = tested on: T1D mice with HEK-XIP implants; experiment: Serum inflammatory cytokines (ELISA); type: in vivo, mouse; conditions: four weeks after implantation, n = 5
Protocol: The concentrations of interferon gamma (IFN‐γ), interleukin‐6 (IL‐6), and tumor necrosis factor alpha (TNF‐α) in mouse serum were assessed by the use of specific enzyme‐linked immunosorbent assay (ELISA) kits. IFN‐γ levels were analyzed using the IFN gamma mouse ELISA kit (cat. no. ab282874, Abcam), IL‐6 levels were determined with the IL‐6 mouse ELISA kit (cat. no. ab100712, Abcam), and TNF‐α levels were quantified utilizing the TNF alpha mouse ELISA kit (cat. no. BMS607HS, ThermoFisher). Freund's Complete Adjuvant (cat. no.: 344289, Sigma‐Aldrich) and lipopolysaccharides (cat. no.: L2630‐10MG, Sigma‐Aldrich) were utilized to induce cytokine production as positive controls. Blood samples were collected from mice treated with adjuvant and LPS 24 hours post‐treatment. The quantification of cytokines from these groups was conducted using the same ELISA kit.

[2] = tested on: CD4 / CD8 T cells of immunized mice; experiment: T-cell response, intracellular cytokine staining; type: in vivo, mouse; conditions: FACS intracellular cytokine staining, spleen and draining lymph nodes, n = 3
Protocol: Mice were immunized at 2‐week intervals.
Isolated lymphocytes from spleens and lymph nodes were placed in a U‐bottom 96‐well plate and resuspended in 100 µl complete RPMI‐1640 medium, which contains FBS (10% v/v), HEPES (pH 7.2∼7.5, 1% v/v, Gibco), penicillin/streptomycin (1% v/v, Gibco), sodium pyruvate (1% v/v, Gibco) and 2‐mercaptoethanol (0.1% v/v, Gibco). Cells were stimulated with 1 µM cognate peptides or with Cell Stimulation Cocktail (a cocktail of phorbol 12‐myristate 13‐acetate (PMA) and ionomycin, Invitrogen) as positive controls at 37 °C for 4 h, in the presence of 10 µM brefeldin A (MedChemExpress) to inhibit cytokine secretion. Next, the cells were washed with 150 µl FACS buffer, and centrifuged with 1,500 g for 2 min. The supernatant was discarded and the cells were blocked with anti‐CD16/32 antibody (1:100, 93, 101302, BioLegend) in 20 µl/well FACS buffer at 4 °C for 15 min. Then 20 µl/well antibody cocktail containing anti‐CD3ε (1:500, 17A2, 100306, BioLegend), anti‐CD4 (1:500, RM4‐5, 100526, BioLegend), anti‐CD8β (1:500, YTS256.7.7, 126606, BioLegend), and anti‐CD45 (1:500, S18009F, 157211, BioLegend) was added to the cell mixture for 20 min incubation at 4 °C. […] Gate margins were determined on the basis of isotype controls and fluorescence‐minus‐one controls.

[3] = Membrane penetration inferred from intracellular gene switch activation; type: in vitro ADME; conditions: HEK-293T with intracellular ComR switch; inferred from SEAP induction
Protocol: Human embryonic kidney cells (HEK‐293T, ATCC: CRL‐11268), human telomerase‐immortalized mesenchymal stem cells (hMSC‐TERT),^[ [56] ^] human fibrosarcoma cells (HT‐1080, ATCC: CCL‐121), human cervical adenocarcinoma cells (HeLa, ATCC: CCL‐2), Chinese hamster ovary cells (CHO‐K1, ATCC: CCL‐61), baby hamster kidney cells (BHK‐21, ATCC: CCL‐10), and human liver cancer cells (Hep G2, ATCC: CRL‐11997) were cultured in Dulbecco's modified Eagle's medium (DMEM, cat. no. 52100–39, Thermo Fisher Scientific) containing 10% fetal bovine serum (FBS, cat. no. F7524, lot no. 022M3395, Sigma‐Aldrich) and 1% (v/v) streptomycin/penicillin (cat. no. L0022, Biowest). All mammalian cells were grown at 37 °C in a humidified atmosphere containing 5% CO2. For all transient transfections, 15 000 cells were seeded per well of a 96‐well plate (cat. no. 3599, Corning Inc. Life Sciences) overnight. Cells were transfected by mixing 100 ng of DNA and polyethyleneimine (PEI, 24765‐2, Polysciences) in a ratio of 1:4. […] The cell density was calculated using a cell counter (CellDrop BF Brightfield Cell Counter, DeNovix Inc.)
SEAP reporter levels in cell culture supernatants were quantified using a colorimetric assay. […] Absorbance at 405 nm was recorded using a plate reader (Tecan Spark, Tecan Group Ltd., Switzerland) for 30 min at 37 °C to determine the SEAP levels.

[4] = tested on: engineered mammalian cells; experiment: Resazurin-based cell viability assay
Protocol: Cells were incubated with resazurin (cat. no. R7017, Sigma‐Aldrich, USA) at a concentration of 50 µg ml^−1 for 2 h. Then fluorescence was assayed with a plate reader (Tecan Spark, Tecan Group Ltd., Switzerland) at excitation and emission wavelengths of 540 and 590 nm, respectively. The fluorescence intensity of non‐induced cells was set to 100%.

[5] = tested on: HEK-293T cells; experiment: Cell growth kinetics of HEK-293 cells; type: cell-based, human; conditions: non-transformed HEK-293T, 10-250 µM, 48 h, n = 4
Protocol: (§1) HEK‐293T cells were seeded in a 10 cm diameter dish at a density of 2.5 × 10^5 cells/ml. After 24 h of culture, the cells were transfected with 35 µg of pJH3 (PhCMV‐SEAP‐pA) overnight, then resuspended and evenly distributed into two 24‐well plates. The treatment groups were treated with XIP at the indicated concentration. Samples were collected at successive time points for two days to quantify viable cells and SEAP production.

[6] = tested on: C57BL/6 mice; experiment: Antibody analysis for peptide immunogenicity; conditions: s.c., three doses of 5 mg kg−1 at two-week intervals, with Freund's adjuvant, OD450, n = 3
Protocol: Eight‐week‐old wild‐type male mice were immunized for peptide immunogenicity assessments. Briefly, peptide solution was premixed 1:1 with Freund's adjuvant in a total volume of 400 µl by thorough vigorous shaking. Then peptide/adjuvant mixes were injected subcutaneously in 30 min at a dose of 5 mg kg^−1. Mice were immunized at 2‐week intervals. Negative controls (mock‐immunized) were also included in the study. One week after the third dose of immunization, blood was sampled for antibody analysis.
For antibody analysis, the peptides were coated on the EIA/RIA plate (cat. no. 3590, Corning Inc. Life Sciences) in carbonate coating buffer (cat. no. CB01100, ThermoFisher) at 4 °C overnight. The next day the plate was blocked with 20% nonfat milk (cat. no. A0830,1000, AppliChem Panreac) for 24 h at 4 °C, and incubated with antibodies at the indicated dilution or at 37 °C for 1 h. Next, horseradish peroxidase‐linked anti‐mouse IgG (cat. no. LNA931V, GE Healthcare, USA) was added to the plate at a dilution of 1:1000 for 1 h at 37 °C. Between each step, the plate was washed with PBS at least three times. Then, 100 µl ultra TMB substrate solution (cat. no. 34028, ThermoFisher) was added to the plate at room temperature for 15 min, followed by the addition of 50 µl of stop solution (2 M H2SO4). The OD450 was measured by a plate reader (Tecan Spark, Tecan Group Ltd., Switzerland). Mouse anti‐HA antibody (cat. no. 901523, BioLegend, USA, 1:1000 dilution) was used as a positive control.

[7] = tested on: HEK-293T cells; experiment: Constitutive recombinant SEAP production (pJH3); type: cell-based, human; conditions: pJH3-transfected, 10-250 µM, 48 h, n = 4
Protocol: as §1
SEAP reporter levels in cell culture supernatants were quantified using a colorimetric assay. In brief, 20 µl of cell culture supernatant was mixed with 80 µl of PBS buffer (cat. no. 14190144, ThermoFisher) and heat‐inactivated at 65 °C for 30 min. Then 80 µl of 2x SEAP assay buffer (20 mM homoarginine, 1 mM MgCl2, 21% diethanolamine, pH 9.8) was mixed with 20 µl of substrate solution, and 100 µl of the buffer‐substrate mixture was added to 100 µl of the diluted heat‐inactivated sample. Absorbance at 405 nm was recorded using a plate reader (Tecan Spark, Tecan Group Ltd., Switzerland) for 30 min at 37 °C to determine the SEAP levels.

Structure (SMILES): CC[C@H](C)[C@H](NC(=O)[C@H](CCSC)NC(=O)[C@H](Cc1ccccc1)NC(=O)[C@H](Cc1ccccc1)NC(=O)[C@@H]1CCCN1C(=O)[C@@H](N)C(C)C)C(=O)N[C@@H](Cc1ccc(O)cc1)C(=O)N[C@@H](Cc1ccc(O)cc1)C(=O)O [XIP, sigX/comX-inducing peptide] (H-VPFFMIYY-OH)
- Serum IFN-γ (significance) ([1]; vs non-induced): ns
- Serum TNF-α (significance) ([1]; vs non-induced): ns
- Serum IL-6 ([1]; undetectable): Below 0.82 pg/ml
- Peptide-specific T-cell response [2]: no peptide‐specific T‐cell response was detected
- Membrane penetration [3]: penetration ability across the mammalian cell membrane; also recorded: efficiently traverses the mammalian cell membrane
- Cell viability under overstimulation ([4]; ComREXTRA-expressing HEK-293T, 50/200/500 µmol/L, 24 h, n = 4): ns and no significant difference of cell viability
- Cytotoxicity (result in words) ([4]; HEK-293T / HEK-XIP / mammalian cells, concentration range tested): no significant impact on cell viability
- Cell viability (significance) ([4]; engineered HEK-293T, ComR operator variants, 150 and 500 µmol/L, n = 4): ns
- Cell viability (significance) ([4]; seven cell lines expressing ComREXTRA-based system, 250 μM, n = 4): ns
- Cell viability (significance) ([4]; seven cell lines with first system (HEK-293T, hMSC-TERT, HT-1080, HeLa, CHO-K1, BHK21, HepG2), 250 μM, n = 4): ns
- Effect on growth kinetics [5]: ns and negligible effect
- Antibody response [6]: no detectable antibodies’ response
- Antibody response ([6]; listed as XIP_WT): ns
- Effect on constitutive SEAP production [7]: ns and negligible effect
